Assay results: US20240374563A1, “ANTICHOLINERGIC COMPOUNDS FOR USE IN TREATING NEUROMUSCULAR DISORDERS” (UNIVERSITY OF MONTRÉAL, priority 2022, published 2024)

Key:
[1] = system: PSC muscarinic receptors (mAChRs); conditions: SOD1 mice, 15 mg/kg for 30 days; SOL muscle
From the text: Mice were then sacrificed, and muscles dissected with their innervation and placed in a physiological recording chamber. We performed Ca^2+ imaging on the SOL muscle to evaluate PSCs synaptic detection of neurotransmission elicited by motor nerve stimulation (50 Hz-5 sec) or local applications of the mAChRs agonist muscarine for the treated and the placebo groups.
Preparations of SOL muscles and their innervation were dissected and pinned in a Sylgard-coated experimental chamber filled with an oxygenated Ree's solution (in mM, all Sigma), as follows: 110 NaCl, 5 KCl, 1 MgCl2, 25 NaHCO3, 2 CaCl2, 11 glucose, 0.3 glutamic acid, 0.4 glutamine, 5 BES (N,N-Bis(2-hydroxyethyl)-2-aminoethanesulfonic acid sodium salt), 0.036 choline chloride, and 4.34×10^−7 cocarboxylase. Nerve-muscle preparations were incubated for 90 min (2×45 min) in a preoxygenated saline solution containing 10 μM fluo-4AM (Invitrogen) and 0.02% pluronic acid (Invitrogen). After the loading, nerve muscle preparations were constantly perfused with a warm (26-28° C.) oxygenated Ree's solution (95% O2, 5% CO2). Basel level of fluorescence was always set within the same range of arbitrary units, using the same software and hardware settings. Changes in fluorescence were measured over PSC soma and expressed as follows: % ΔF/F=(F-Frest)/Frest×100. Experiments were discarded when focus drift occurred. […]

PSC purinergic receptors = assay: Calcium imaging of PSCs: Ca2+ responses to local ATP application; format: in vivo, SOD1^G37R mice
SOD1^G37R mice [2] = assay: EDL contractile force with muscle force transducer (force-frequency curve, contractile capacity ratio); format: in vivo, mouse
From the text: To investigate this, we used a musde force transducer to measure the force generated by EDL muscles elicited by stimulation of the motor nerve and/or by the direct muscle stimulation (FIG. 5A). With this system, stimulation of the motor nerve at various frequencies elicits muscle contraction through NMJ efficacy, reflecting the strength of contractile fibers associated with innervated NMJs only. Muscle stimulation, on the contrary, depolarizes all muscle fibers and reflect maximal twitch force of all the muscle, independent of the innervation status.
These values represent respectively 55% and 30% of the WT mean twitch force value (FIG. 5B; Dari N=8, Placebo N=8; p<0.01, Repeated Two-way ANOVA). Contractile forces generated differed between the two groups from 70 Hz to 300 Hz (FIG. 5B; Dari N=8, Placebo N=8; p<0.05, Two-way ANOVA, Bonferroni post hoc test). […] This is indicative of the preservation of the fast-twitch properties of the EDL (FIG. 5C; Dari N=8, Placebo N=8; p<0.05 et p<0.01, unpaired t-tests at each frequency).
We next determined the proportion of the muscle capacity that is used by the neuromuscular system upon nerve stimulation. This was expressed as the contractile capacity ratio calculated as follow: […]
The EDL and SOL nerve-muscle preparations were attached vertically to a fixed force transducer (model 402 A-500 mN, Aurora Scientific Inc.) using surgical threads. The preparations were attached at the tendons level to the transducer at one extremity and to an adaptable hook at the opposite extremity. A platinum reference electrode was then juxtaposed ot the muscle, positioned near an extremity of the muscle, close to a tendon. To stimulate the muscle, a second platinum electrode was juxtaposed at the other extremity of the muscle. To elicit muscle contractions from motor nerve and neuromuscular activity, the tibial nerve (SOL) or the deep peroneal nerve (EDL) motor nerve was suctioned into an electrode made of PE tubing and filled with Ringer's solution. […] Neuromuscular contractile basal force responses were elicited by a single supra-maximal square-wave of 500 mV, 0.1 ms pulse imposed on the motor nerve. Muscle contractile basal force responses were elicited by square pulse stimulation of 15 V, 1 ms. Optimal muscle length was determined by gradually stretching the muscle until maximal contractile force output was attained.
Force-frequency curve: Nerve and muscle stimulations were performed to generate a standard force-frequency curve. Alternate nerve and muscle stimulations were performed at various frequencies (5 Hz, 10 Hz, 20 Hz, 30 Hz, 40 Hz, 50 Hz, 60 Hz, 70 Hz, 80 Hz, 90 Hz, 100 Hz, 120 Hz, 140 Hz, 160 Hz, 180 Hz, 200 Hz, 250 Hz and 300 Hz) and the force generated monitored. There was a 2-minute rest period between each stimulation.

SOD1^G37R mice [3] = assay: Body weight loss; format: in vivo, mouse; conditions: at P520; treatment from disease onset; N=21
From the text: To this end, we monitored the changes in the body weight of the animals, a metric that is directly related to the progression of the disease and survival whereby animals present an important gradual body weight loss after symptoms onset.
The pre-clinial trial design was made according to guidelines for preclinical animal research in ALS/MND [35]. Male mice from the SOD1^G37R background and their WT littermates were included in the preclinical study. Mice were randomly assigned to the experimental or the placebo group. Treatment, behavior monitoring, experiments and results analysis were done blindly. Standard ALS behavioral measurements were performed biweekly to measure disease progression in the various study groups. This includes rotarod test. grip strength measurements, weight measurements and tail suspension test to assess hindlimb extension reflex.

[4] = Darifenacin level in blood; format: in vivo; conditions: SOD1 mice after oral treatment; levels consistent with pre-clinical data; data not shown
Method: We opted for the dosage at 10 mg/kg since the primary goal is to restore PSCs activity by dampening their muscarinic activity close to WT levels. […] These were both essential steps to pursue the study.

NC(=O)C(c1ccccc1)(c1ccccc1)[C@@H]1CCN(CCc2ccc3c(c2)CCO3)C1 [darifenacin]
PSCs muscarinic activation [1]: greatly abolished
PSC Ca2+ response to ATP, Darifenacin vs DMSO vs non-treated wild type (PSC purinergic receptors; SOD1G37R mice, 10 mg/kg orally for 5 days): no difference
effect on purinergic signaling of PSCs (Ca2+ responses to local ATP) (PSC purinergic receptors; SOD1 mice, 10 or 15 mg/kg for 30 days): no effect
peak EDL muscle force, nerve or muscle stimulation, vs placebo (SOD1^G37R mice [2]; 5 Hz-300 Hz, pre-onset treatment P400 until P520, N=4): no difference
EDL twitch force, nerve stimulation (SOD1^G37R mice [2]; force-frequency protocol 5 Hz-300 Hz, treatment from disease onset, N=8): 138.0±9.1 mN
EDL twitch force as % of the WT mean twitch force value (SOD1^G37R mice [2]; nerve stimulation, treatment from disease onset): 55%
animals discarded for early onset of forelimb paralysis, final stage at P490 (SOD1^G37R mice [2]; pre-onset treatment from P400): two
body weight loss (SOD1^G37R mice [3]): 20.0±1.9%
darifenacin in the blood [4]: detected in the blood
